Reference: paper PMC5610471, “Use of the KlADH3 promoter for the quantitative production of the murine PDE5A isoforms in the yeast Kluyveromyces lactis” (Microbial Cell Factories, 2017)

Tests used:
PDE5A1 = target: T1, PDE5A1 (Mus musculus, UniProt Q8CG03); assay: biochemical
T1 construct: gene Pde5a

[1] = tested on: [H][C@@]12COP(=O)(O)O[C@@]1([H])[C@@H](O)[C@H](n1cnc3c(=O)[nH]c(N)nc31)O2; assay: purified protein; conditions: Mg2+ ([…] MgCl2 in the assay buffer)

Row | Compound | IC50 (PDE5A1) [nM] | Km [1] [µM]
1 | CCCc1nn(C)c2c(=O)[nH]c(-c3cc(S(=O)(=O)N4CCN(C)CC4)ccc3OCC)nc12 [Sildenafil] | 4.7 ± 1.1 | 
2 | PDE5A1 (Mus musculus) |  | 1.08 ± 0.08
